Measurements from patent publication US20160050935A1, “METHOD FOR CONTROLLING PARTICLE SIZE OF SILVER PARTICLES, SILVER PARTICLES, ANTIMICROBIAL AGENT CONTAINING SLIVER PARTICLES, AND USE THEREOF” (SOFSERA CORPORATION, priority 2013, published 2016).

System: Escherichia coli (Gram-negative bacteria)
Test: Antibacterial test of silver particles-2 (bacteria count in tube 1 over time)
Format: cell-based
Method: A test similar to that in <5. Antibacterial test of silver particles-1> was carried out with use of Escherichia coli (Gram-negative bacteria), which is one of model organisms and by which bacteria are typified. Note that the test was carried out by a method similar to that in <5. Antibacterial test of silver particles-1>, except that a kind of the bacteria used in the test was changed. Therefore, the method of the test will not be described here, and only results of the test will be described.
FIG. 10 illustrates results of the test carried out with use of “1 mM CDT-Ag,” “5 mM CDT-Ag,” and “10 mM CDT-Ag.” More specifically, FIG. 10 illustrates results of, “0 (zero) h,” “0.5 h,” “1 (one) h,” and “2 h” after the silver particles were mixed with the bacteria, (i) taking out an LB culture medium from each of tubes 1 through 8 stored in an incubator and (ii) carrying out an operation K), that is, a result of incubating the bacteria at 37° C. for 24 hours by storing a petri dish, prepared in the operation K), in the incubator.

O=C(O)CCCCCCCCCCS [Free CDT, 10-carboxy-1-decanthiol]
bacteria count in the tube 1 (count at 0 h = 1) (0 h (set to 1 by assumption)): 1 | bacteria count in the tube 1 (count at 0 h = 1) (0.5 h after mixing): 1 | bacteria count in the tube 1 (count at 0 h = 1) (1 h after mixing): 1 | bacteria count in the tube 1 (count at 0 h = 1) (2 h after mixing): 1 | antibacterial activity (in words, from FIG. 10 and Table 3): did not have antibacterial activity
